Where “and” joins values, the source holds several entries; their conditions need not be identical. Equal entries are not always repeated. Calls of active or inactive are those of the source.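 How the source made its calls: active means compounds giving half or more protection of infected cells from virus-caused growth loss, again on retest; inactive means the rest.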 Where a SMILES comes first, the peptide text is derived from it. The star is where a group is joined. Boc = CC(C)(C)OC(=O)*
Tested on: CEM cells HIV-1 protection, formazan growth assay
Test: NCI AIDS Antiviral Assay
Conditions: for IC50: measured here: growth of uninfected CEM cells
Procedure, shortened: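 Screen of anti-HIV-1 activity in human CEM cells using a formazan-based growth measurement at five drug concentrations. Hits with 50% or greater protection were repeated, and confirmation required reproducible complete protection.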

| SMILES | outcome | EC50 | IC50 |
| --- | --- | --- | --- |
| Nc1nc(N)c(CCCCc2ccccc2)c(/C=C/c2ccc([N+](=O)[O-])cc2)n1 | inactive |  |  |
| COC(=O)C(C)NC(=O)C(CCSC)NC(=O)C(Cc1ccccc1)NC(=O)OC(C)(C)C (stereo not drawn) (Boc-Phe-Met-Ala-OMe; configuration not given here) |  | > 200 µM |  |
| C=CCCCC12CCCc3cccc(c31)NC2=O (stereo not drawn) |  | > 151 µM | 63.1 µM |
| CN(C)c1ccc(-c2nc3c(=O)n(C)c(=O)n(C)c3nc2-c2ccc(N(C)C)cc2)cc1 |  | > 200 µM | 126 µM |
| COC(=O)Oc1nn(C(=O)OC)c(=O)c2ccccc12 (tested in a mixture with another compound) |  | > 200 µM | > 200 µM |
| N.N.N.N.O=N[O-].O=N[O-].O=[N+]([O-])[O-].[Co+3] |  | > 200 µM | > 200 µM |
| CC[C@H](CCCC[C@H]1CC[C@@H]2CC(=O)C[C@H]12)OC |  | > 200 µM | 117 µM |
| CN(C)c1ccc(C=C2C(=O)OC(C)(C)OC2=O)cc1 | inactive |  |  |
| N#CC(C#N)=Cc1cc(O)c(O)c(O)c1 |  | > 200 µM | 31.6 µM |
| O=C(/C=C/c1ccccc1)CC1OC(=O)c2ccccc21 (stereo not drawn) |  | > 245 µM | 129 µM |
| CCO[Si](C)(OCC)OCC |  | > 200 µM | > 200 µM |
| COC(=O)C1CC(F)(F)[C@H]1n1cnc2c(N)ncnc21 (stereo partly drawn) |  | > 240 µM | > 240 µM |
| CCOP(=O)(C/C=C/CN(C(=O)OC(C)(C)C)C(=O)OC(C)(C)C)OCC | inactive |  |  |
| NC1=C(O)/C(=N/NS(=O)(=O)c2ccccc2)C(c2ccc3c(c2)OCO3)O1 (stereo not drawn) |  | > 3.72 µM | > 3.72 µM |
| O=C1CCCC2CCCCN12 (stereo not drawn) | inactive |  |  |
| NCC(=O)NC1OC(COP(=O)(O)O)C(O)C1O (stereo not drawn) |  | > 200 µM | > 200 µM |
| O=c1scc(-c2ccc(C(F)(F)F)cc2)s1 |  | > 85.1 µM | > 85.1 µM |
| CCOC(=O)C[C@@]12CCCNC1(C)CCc1ccccc12 (stereo partly drawn) | inactive |  |  |
| CCOC(=O)C(=O)Nc1c(F)cc(F)cc1Br |  | > 813 µM | > 813 µM |
| O=C(/N=N/C(=O)Oc1ccccc1)Oc1ccccc1 |  | > 200 µM | 33.1 µM |
| CCOC(=O)c1c(-c2ccc(Cl)cc2)c(C#N)c(=S)n(C2OC(CO)C(O)C(O)C2O)c1-c1ccccc1 (stereo not drawn) |  | > 200 µM | 34.7 µM |
| CCOC(=O)COc1ccc2c(C)c(CCN(CC)CC)c(=O)oc2c1 |  | > 631 µM | > 631 µM |

| SMILES | outcome | EC50 | IC50 |
| --- | --- | --- | --- |
| CC1CN(C=O)CC(C)N1CCN1C(C)CN(C=O)CC1C (stereo not drawn) |  | > 288 µM | > 288 µM |
| Cc1c(NC(=S)Nc2ccc([N+](=O)[O-])cc2)c(=O)n(-c2ccccc2)n1C |  | > 200 µM | > 200 µM |
| Nc1[nH]c(=S)c2c(N)n[nH]c2c1C(=O)Nc1ccc(Cl)cc1 |  | > 200 µM | 1.55 µM |
| CN(C)CCC(=O)C(=Cc1ccc(O)cc1)C(=O)CCN(C)C |  | > 646 µM | 43.7 µM |
| CCCCN1C(=O)C(NC(C)=O)C1COC(C)(C)C (stereo not drawn) |  | > 479 µM | > 479 µM |
| CCOC(=O)/C(=C/c1cn(C(C)=O)c2ccccc12)P(=O)(OC)OC |  | > 200 µM | 72.4 µM |
| O=C1NC(N/N=C\C(O)C(O)C(O)C(O)CO)=N/C1=C/c1ccc(Cl)cc1 (stereo not drawn) |  | > 200 µM | 61.7 µM and 37.2 µM |
| COC(=O)c1cc2cc(CS(=O)(=O)O)ccc2cc1O |  | > 200 µM | 102 µM |
| COC(=O)C1=C(C(=O)OC)C2(C)OC1C(=O)C21CC1 (stereo not drawn) | inactive |  |  |
| COc1ccc(C2CC(c3c(O)ccc4ccccc34)=NN2C(C)=O)cc1OC (stereo not drawn) |  | > 200 µM | 46.8 µM |
| COC(=O)CC1(O)C(/C=C/c2ccccc2)C(C(=O)OC)C(=O)C(C(=O)OC)C1C(=O)OC (stereo not drawn) |  | > 50.1 µM | 37.2 µM |
| CNc1ccc(OC)cc1S(=O)(=O)c1ccccc1[N+](=O)[O-] |  | 148 µM | 182 µM |
| O=C(O)CCC(NC(=O)/C(=C/c1ccccc1)NC(=O)c1ccccc1)C(=O)O (stereo not drawn) |  | > 200 µM | > 200 µM |
| C[n+]1ccccc1-c1nc(-c2cccc[n+]2C)nc(-c2cccc[n+]2C)n1 |  | > 200 µM | > 200 µM |
| CC1(c2cccc3c2C2(O)C=CC4(CCC32)OCCO4)OCCO1 (stereo not drawn) |  | 123 µM | 174 µM |
| Cc1ccc(Sc2cc([N+](=O)[O-])cc(Sc3ccc(C)cc3)c2Sc2ccc(C)cc2)cc1 |  | > 3.72 µM | > 3.72 µM |
| Cc1[nH]c(=O)nc(CC(O)(c2ccccc2)c2ccccc2)c1-c1ccccc1 |  | > 2.75 µM | > 2.75 µM |
| NC1=NN(c2ccccc2)C2(c3ccncc3C(=O)O)C1C(N)=NN2c1ccccc1 (stereo not drawn) |  | > 200 µM | > 200 µM |
| CC1(C)CC(C)(C)C1=NNC(N)=O |  | > 200 µM | > 200 µM |
| O=C(CCCC[P+](c1ccccc1)(c1ccccc1)c1ccccc1)c1ccccc1 |  | > 200 µM | 0.661 µM |
| CCOP(=O)(OCC)/C(C#N)=C/c1cnc(C)[nH]1 |  | > 200 µM | > 200 µM |
| O=C(c1c(F)c(F)c(F)c(F)c1F)n1c(=S)n(C(=O)c2c(F)c(F)c(F)c(F)c2F)c2ccccc21 |  | > 100 µM | 4.9 µM |

| SMILES | outcome | EC50 | IC50 |
| --- | --- | --- | --- |
| CNc1ccc(S(=O)Nc2ccccc2)cc1 (stereo not drawn) |  | > 200 µM | 93.3 µM |
| O=C(c1ccccc1)N(CCCCNC(=O)C(F)(F)F)CCCNC(=O)C(F)(F)F |  | > 200 µM | > 200 µM |
| Cc1cccc(N=C2NC(=O)C(CC(=O)Nc3ccc(Cl)cc3C)S2)c1 (stereo not drawn) |  | > 18.6 µM | > 18.6 µM |
| COc1cc(COC(=O)N2CCCCC2C(=O)O)c([N+](=O)[O-])cc1OC (stereo not drawn) |  | > 676 µM | 457 µM |
| Nc1[nH]n(-c2ccccc2)c(=O)c1/C=N/C(=S)N=Nc1c(O)[nH]c2ccccc12 |  | > 200 µM | 83.2 µM |
| CC(C)(C)C1CCC(=O)C(C(O)CC2CC(=O)N(c3ccccc3)C(=O)C2)C1 (stereo not drawn) |  | > 200 µM | > 200 µM |
| Clc1ccc(CN2COc3c(ccc4cccnc34)C2)cc1Cl |  | > 200 µM | 1.29 µM |
| Cc1cc(=O)c2c(o1)-c1c(cc(O)c(O)c1C(=O)O)OC2 |  | > 871 µM | 57.5 µM |
| C/C(O)=C(\C=N\C(N)=S)C(=O)Nc1ccccc1C |  | > 200 µM | > 200 µM |
| C=C([C@@]1(O)C[C@H]2[C@H](CCC2(OC)OC)[C@@H]2c3ccccc3O[C@@H]21)[Si](C)(C)C | inactive |  |  |
| O=C1NC(=O)c2ncccc21 |  | > 200 µM | > 200 µM |
| Cc1[nH]n(-c2nc(-c3ccccc3)cc(=O)[nH]2)c(=O)c1CCO |  | > 200 µM | > 200 µM |
| C(=C\c1ccccc1)/Cn1nc(-c2ccccc2)nc1-c1cnccn1 |  | 145 µM | > 200 µM |
| COc1ccc(OC)c(NC(=O)Nc2nccs2)c1 |  | > 200 µM | > 200 µM |
| COc1ccc2c(c1)CCC1C3(CCCC21C=O)OCCO3 (stereo not drawn) |  | > 166 µM | > 166 µM |
| COc1ccc(/C=C(/C#N)C(N)=O)c(OC)c1 |  | > 200 µM | 60.3 µM |
| CCOC(=O)c1cc(/C=C/C(C)=C/C(=O)OC)oc1C |  | > 67.6 µM | > 67.6 µM |
| O=C1/C(=C/c2ccccc2)CN(C(=O)OCc2ccccc2)C/C1=C\c1ccccc1 | inactive |  |  |
| NC(=O)C(=Cn1c(=S)[nH]c2ccccc21)C(N)=O |  | > 200 µM | > 200 µM |
| C[n+]1cccc2ccc3cccnc3c21 |  | > 200 µM | 7.94 µM |
| C[C@H]1CN[C@@H]2[C@@H](C)[C@H]3[C@@H](C[C@H]4[C@@H]5CC[C@H]6C[C@@H](N)CC[C@]6(C)[C@H]5CC[C@]34C)O[C@@]2(O)C1 |  | > 38 µM | 1.74 µM |
| CCc1nnc(-c2nsc3ccccc23)s1 |  | > 145 µM | 126 µM |

| SMILES | outcome | EC50 | IC50 |
| --- | --- | --- | --- |
| O=S(=O)([O-])[O-].O=c1[nH]cnc2nc[n-]c12.[Cu+2].[OH3+].[OH3+] |  | > 10.7 µM | > 10.7 µM |
| Cc1sc(N=Nc2c(O)[nH]c3ccccc23)nc1-c1ccccc1 |  | > 200 µM | 43.7 µM |
| O=C1NC(S(=O)(=O)O)=NNC12c1ccccc1-c1ccccc12 |  | > 200 µM | 107 µM |
| CC1=C(CO)C(=O)OC(C(C)C2CCC3C4CC5OC56C(O)C(N5CC5)=CC(=O)C6(C)C4CCC23C)C1 (stereo not drawn) | inactive |  |  |
| Nc1nc(Cl)nc(Cl)n1 |  | > 200 µM | > 200 µM |
| COc1ccc(N2C(=O)C3c4[nH]c5ccccc5c4C4CCC(C(C)(C)C)CC4C3C2=O)cc1OC (stereo not drawn) |  | > 2.14 µM | > 2.14 µM |
| COc1ccc2nc3cc(Cl)ccc3c(Sc3ccc([N+](=O)[O-])cc3C)c2c1 |  | > 12.6 µM | > 12.6 µM |
| O=C1COC(c2ccccc2O)=NN1CCCl |  | > 141 µM | > 141 µM |
| C/C(=N/NC(=S)Nc1ccc([N+](=O)[O-])cc1)c1cccc(/C(C)=N\NC(=S)Nc2ccc([N+](=O)[O-])cc2)n1 |  | > 200 µM | 0.479 µM |
| COc1ccc(NC(=O)/C(=C/N2C(=O)/C(=C/c3ccc(OC)c(OC)c3)NC2=S)C(C)=O)cc1 |  | > 200 µM | 23.4 µM |
| COc1ccc(N=Nc2c(C)c(C#N)c(=S)n(C3OC(CO)C(O)C(O)C3O)c2C)cc1 (stereo not drawn) |  | > 200 µM | 27.5 µM |
| CCCNC(=O)Sc1ccccc1C(=O)N[C@@H](C)C(N)=O |  | > 4.17 µM | 1.41 µM |
| CCOC(=O)C1=CC(C)(C(=O)OCC)Nc2c(nc(OC)[nH]c2=O)N1 (stereo not drawn) |  | > 200 µM | > 200 µM |
| CC(=O)C1(N=Nc2ccc(S(=O)(=O)Nc3nccc(C)n3)cc2)CCOC1=O (stereo not drawn) |  | > 200 µM | > 200 µM |
| COC(=O)[C@H](Cc1cn(C(c2ccccc2)(c2ccccc2)c2ccccc2)cn1)NCc1cc(N(C)C)cc(CN[C@@H](Cc2cn(C(c3ccccc3)(c3ccccc3)c3ccccc3)cn2)C(=O)OC)n1 |  | > 100 µM | 5.89 µM |
| COc1ccc(/C=[N+](\[O-])[C@H](COCc2ccccc2)c2ccccc2)cc1 |  | > 72.4 µM | > 72.4 µM |
| CCOc1ccc(C2Oc3c(cccc3OC)C=C2[N+](=O)[O-])cc1OCC (stereo not drawn) |  | > 200 µM | 3.02 µM |
| CC(NC1=NCCO1)c1ccsc1 (stereo not drawn) |  | > 200 µM | 64.6 µM |
| Cc1ccc(C)c2c1C(=O)N(c1ccccc1)C2=O |  | > 200 µM | > 200 µM |
| O=c1oc(-c2ccccc2)cn1-c1ccccc1 | inactive |  |  |
| CN1B(c2ccccc2)N(C)C(=O)N(C)C1=O |  | > 200 µM | > 200 µM |
